# Experimental data: US20230126893A1, “[(1,4,5-TRISUBSTITUTED-1H-PYRAZOL-3-YL)SULFANYL]ACETIC ACID DERIVATIVES, SALTS THEREOF, AND USE THEREOF AS ACTIVE HERBICIDAL INGREDIENTS” (BAYER AKTIENGESELLSCHAFT, priority 2020, published 2023)
# Test system: Alopecurus myosuroides
# Experiment: Pre-emergence herbicidal effect against ALOMY
# Type: in vivo
# Conditions: 1280 g/ha, visual score after 3 weeks, 100% = plants have died, 0% = like control plants
# Source text: (§1) 1. Pre-emergence herbicidal effect and crop plant compatibility Seeds of monocotyledonous and dicotyledonous weed plants and crop plants are laid out in sandy loam soil in wood-fibre pots and covered with soil. The compounds of the invention, formulated in the form of wettable powders (WP) or as emulsion concentrates (EC), are then applied to the surface of the covering soil as aqueous suspension or emulsion at a water application rate equating to 600 to 800 L/ha with addition of 0.2% wetting agent. After the treatment, the pots are placed in a greenhouse and kept under good growth conditions for the trial plants. The damage to the test plants is scored visually after a test period of 3 weeks by comparison with untreated controls (herbicidal activity in percent (%): 100% activity=the plants have died, 0% activity=like control plants). [table]
row,SMILES,Pre-emergence action against ALOMY
1,CCOC(=O)CSc1nn(-c2ccccc2OC)c(-c2ccc(F)cc2)c1Br [Example I-023],90%
2,COC(=O)CN(C)C(=O)CSc1nn(-c2ccccc2F)c(-c2ccc(F)c(F)c2)c1Br [VII-011],90%
3,O=C(O)CSc1nn(-c2ccccc2F)c(-c2cccnc2)c1Br [II-017],90%

# Test system: Digitaria sanguinalis
# Experiment: Pre-emergence herbicidal effect against DIGSA
# Type: in vivo
# Conditions: 1280 g/ha, visual score after 3 weeks, 100% = plants have died, 0% = like control plants
# Source text: as §1
row,SMILES,Pre-emergence action against DIGSA
1,CCOC(=O)CSc1nn(-c2ccccc2OC)c(-c2ccc(F)cc2)c1Br [Example I-023],100%

# Test system: Echinochloa crus-galli
# Experiment: Pre-emergence herbicidal effect against ECHCG
# Type: in vivo
# Conditions: 1280 g/ha, visual score after 3 weeks, 100% = plants have died, 0% = like control plants
# Source text: as §1
row,SMILES,Pre-emergence action against ECHCG
1,CCOC(=O)CNC(=O)CSc1nn(-c2ccccc2F)c(-c2ccc(F)c(F)c2)c1Br [VII-003],100%
2,O=C(O)CSc1nn(-c2ccccc2F)c(-c2cnccn2)c1Br [VI-002],90%
3,O=C(O)CSc1nn(-c2ccccc2F)c(-c2cccnc2)c1Br [II-017],90%

# Test system: Lolium rigidum
# Experiment: Pre-emergence herbicidal effect against LOLRI
# Type: in vivo
# Conditions: 1280 g/ha, visual score after 3 weeks, 100% = plants have died, 0% = like control plants
# Source text: as §1
row,SMILES,Pre-emergence action against LOLRI
1,CCOC(=O)CNC(=O)CSc1nn(-c2ccccc2F)c(-c2ccc(F)c(F)c2)c1Br [VII-003],100%

# Test system: Poa annua
# Experiment: Pre-emergence herbicidal effect against POAAN
# Type: in vivo
# Conditions: 1280 g/ha, visual score after 3 weeks, 100% = plants have died, 0% = like control plants
# Source text: as §1
row,SMILES,Pre-emergence action against POAAN
1,CCOC(=O)CSc1nn(-c2ccccc2OC)c(-c2ccc(F)cc2)c1Br [Example I-023],100%
2,CCOC(=O)CNC(=O)CSc1nn(-c2ccccc2F)c(-c2ccc(F)c(F)c2)c1Br [VII-003],100%
3,O=C(O)CSc1nn(-c2ccccc2F)c(-c2cnccn2)c1Br [VI-002],100%
4,COC(=O)CN(C)C(=O)CSc1nn(-c2ccccc2F)c(-c2ccc(F)c(F)c2)c1Br [VII-011],100%
5,O=C(O)CSc1nn(-c2ccccc2F)c(-c2cccnc2)c1Br [II-017],100%

# Test system: Setaria viridis
# Experiment: Pre-emergence herbicidal effect against SETVI
# Type: in vivo
# Conditions: 1280 g/ha, visual score after 3 weeks, 100% = plants have died, 0% = like control plants
# Source text: as §1
row,SMILES,Pre-emergence action against SETVI
1,CCOC(=O)CSc1nn(-c2ccccc2OC)c(-c2ccc(F)cc2)c1Br [Example I-023],90%
2,CCOC(=O)CNC(=O)CSc1nn(-c2ccccc2F)c(-c2ccc(F)c(F)c2)c1Br [VII-003],100%
3,O=C(O)CSc1nn(-c2ccccc2F)c(-c2cnccn2)c1Br [VI-002],90%
4,O=C(O)CSc1nn(-c2ccccc2F)c(-c2cccnc2)c1Br [II-017],90%

# Test system: Tripleurospermum inodorum
# Experiment: Pre-emergence herbicidal effect against MATIN
# Type: in vivo
# Conditions: 1280 g/ha, visual score after 3 weeks, 100% = plants have died, 0% = like control plants
# Source text: as §1
row,SMILES,Pre-emergence action against MATIN
1,CCOC(=O)CSc1nn(-c2ccccc2OC)c(-c2ccc(F)cc2)c1Br [Example I-023],100%
2,CCOC(=O)CNC(=O)CSc1nn(-c2ccccc2F)c(-c2ccc(F)c(F)c2)c1Br [VII-003],100%
3,O=C(O)CSc1nn(-c2ccccc2F)c(-c2cnccn2)c1Br [VI-002],90%
4,COC(=O)CN(C)C(=O)CSc1nn(-c2ccccc2F)c(-c2ccc(F)c(F)c2)c1Br [VII-011],90%
5,O=C(O)CSc1nn(-c2ccccc2F)c(-c2cccnc2)c1Br [II-017],90%

# Test system: Stellaria media
# Experiment: Pre-emergence herbicidal effect against STEME
# Type: in vivo
# Conditions: 1280 g/ha, visual score after 3 weeks, 100% = plants have died, 0% = like control plants
# Source text: as §1
row,SMILES,Pre-emergence action against STEME
1,CCOC(=O)CSc1nn(-c2ccccc2OC)c(-c2ccc(F)cc2)c1Br [Example I-023],100%
2,CCOC(=O)CNC(=O)CSc1nn(-c2ccccc2F)c(-c2ccc(F)c(F)c2)c1Br [VII-003],100%
3,O=C(O)CSc1nn(-c2ccccc2F)c(-c2cnccn2)c1Br [VI-002],90%
4,O=C(O)CSc1nn(-c2ccccc2F)c(-c2cccnc2)c1Br [II-017],90%

# Test system: Veronica persica
# Experiment: Pre-emergence herbicidal effect against VERPE
# Type: in vivo
# Conditions: 1280 g/ha, visual score after 3 weeks, 100% = plants have died, 0% = like control plants
# Source text: as §1
row,SMILES,Pre-emergence action against VERPE
1,CCOC(=O)CSc1nn(-c2ccccc2OC)c(-c2ccc(F)cc2)c1Br [Example I-023],100%
2,CCOC(=O)CNC(=O)CSc1nn(-c2ccccc2F)c(-c2ccc(F)c(F)c2)c1Br [VII-003],100%
3,COC(=O)CN(C)C(=O)CSc1nn(-c2ccccc2F)c(-c2ccc(F)c(F)c2)c1Br [VII-011],90%
4,O=C(O)CSc1nn(-c2ccccc2F)c(-c2cccnc2)c1Br [II-017],100%

# Test system: Alopecurus myosuroides
# Experiment: Post-emergence herbicidal effect against ALOMY
# Type: in vivo
# Conditions: 1280 g/ha, visual score after about 3 weeks, 100% = plants have died, 0% = like control plants
# Experimental: (§2) [table] 2. Post-emergence herbicidal effect and crop plant compatibility Seeds of monocotyledonous and dicotyledonous weed and crop plants are laid out in sandy loam soil in wood-fibre pots, covered with soil and cultivated in a greenhouse under good growth conditions. 2 to 3 weeks after sowing, the test plants are treated at the one-leaf stage. The compounds of the invention, formulated in the form of wettable powders (WP) or as emulsion concentrates (EC), are then sprayed onto the green parts of the plants as aqueous suspension or emulsion at a water application rate equating to 600 to 800 l/ha with addition of 0.2% wetting agent. After the test plants have been left to stand in the greenhouse under optimal growth conditions for about 3 weeks, the action of the preparations is assessed visually in comparison to untreated controls (herbicidal action in percent (%): 100% activity=the plants have died, 0% activity=like control plants).
row,SMILES,Post-emergence action against ALOMY
1,CCOC(=O)CNC(=O)CSc1nn(-c2ccccc2F)c(-c2ccc(F)c(F)c2)c1Br [VII-003],100%
2,O=C(O)CSc1nn(-c2ccccc2F)c(-c2cnccn2)c1Br [VI-002],90%
3,COC(=O)CN(C)C(=O)CSc1nn(-c2ccccc2F)c(-c2ccc(F)c(F)c2)c1Br [VII-011],90%
4,O=C(O)CSc1nn(-c2ccccc2F)c(-c2cccnc2)c1Br [II-017],90%

# Test system: Echinochloa crus-galli
# Experiment: Post-emergence herbicidal effect against ECHCG
# Type: in vivo
# Conditions: 1280 g/ha, visual score after about 3 weeks, 100% = plants have died, 0% = like control plants
# Experimental: as §2
row,SMILES,Post-emergence action against ECHCG
1,O=C(O)CSc1nn(-c2ccccc2F)c(-c2cnccn2)c1Br [VI-002],90%
2,O=C(O)CSc1nn(-c2ccccc2F)c(-c2cccnc2)c1Br [II-017],90%

# Test system: Poa annua
# Experiment: Post-emergence herbicidal effect against POAAN
# Type: in vivo
# Conditions: 1280 g/ha, visual assessment about 3 weeks after treatment, 100% = plants have died, 0% = like control plants
# Experimental: as §2
row,SMILES,Post-emergence action against POAAN
1,CCOC(=O)CNC(=O)CSc1nn(-c2ccccc2F)c(-c2ccc(F)c(F)c2)c1Br [VII-003],100%
2,O=C(O)CSc1nn(-c2ccccc2F)c(-c2cccnc2)c1Br [II-017],100%

# Test system: Setaria viridis
# Experiment: Post-emergence herbicidal effect against SETVI
# Type: in vivo
# Conditions: 1280 g/ha, visual assessment about 3 weeks after treatment, 100% = plants have died, 0% = like control plants
# Experimental: as §2
row,SMILES,Post-emergence action against SETVI
1,O=C(O)CSc1nn(-c2ccccc2F)c(-c2cccnc2)c1Br [II-017],90%

# Test system: Bassia scoparia
# Experiment: Post-emergence herbicidal effect against KCHSC
# Type: in vivo
# Conditions: 1280 g/ha, visual assessment about 3 weeks after treatment, 100% = plants have died, 0% = like control plants
# Experimental: as §2
row,SMILES,Post-emergence action against KCHSC
1,COC(=O)CN(C)C(=O)CSc1nn(-c2ccccc2F)c(-c2ccc(F)c(F)c2)c1Br [VII-011],90%

# Test system: Tripleurospermum inodorum
# Experiment: Post-emergence herbicidal effect against MATIN
# Type: in vivo
# Conditions: 1280 g/ha, visual assessment about 3 weeks after treatment, 100% = plants have died, 0% = like control plants
# Experimental: as §2
row,SMILES,Post-emergence action against MATIN
1,CCOC(=O)CNC(=O)CSc1nn(-c2ccccc2F)c(-c2ccc(F)c(F)c2)c1Br [VII-003],90%
2,O=C(O)CSc1nn(-c2ccccc2F)c(-c2cnccn2)c1Br [VI-002],90%
3,O=C(O)CSc1nn(-c2ccccc2F)c(-c2cccnc2)c1Br [II-017],90%

# Test system: Stellaria media
# Experiment: Post-emergence herbicidal effect against STEME
# Type: in vivo
# Conditions: 1280 g/ha, visual assessment about 3 weeks after treatment, 100% = plants have died, 0% = like control plants
# Experimental: as §2
row,SMILES,Post-emergence action against STEME
1,CCOC(=O)CNC(=O)CSc1nn(-c2ccccc2F)c(-c2ccc(F)c(F)c2)c1Br [VII-003],90%

# Test system: Veronica persica
# Experiment: Post-emergence herbicidal effect against VERPE
# Type: in vivo
# Conditions: 1280 g/ha, visual assessment about 3 weeks after treatment, 100% = plants have died, 0% = like control plants
# Experimental: as §2
row,SMILES,Post-emergence action against VERPE
1,CCOC(=O)CSc1nn(-c2ccccc2OC)c(-c2ccc(F)cc2)c1Br [Example I-023],90%
2,CCOC(=O)CNC(=O)CSc1nn(-c2ccccc2F)c(-c2ccc(F)c(F)c2)c1Br [VII-003],90%
3,O=C(O)CSc1nn(-c2ccccc2F)c(-c2cnccn2)c1Br [VI-002],90%
4,COC(=O)CN(C)C(=O)CSc1nn(-c2ccccc2F)c(-c2ccc(F)c(F)c2)c1Br [VII-011],90%
5,O=C(O)CSc1nn(-c2ccccc2F)c(-c2cccnc2)c1Br [II-017],90%
